Measurements published in patent publication US5010058A, “3,5,6-substituted derivatives of 1,2-O-isopropylidene-α,D-glucofuranose and intermediates for preparing these derivatives” (501 Greenwich Pharmaceuticals Incorporated, priority 1989, dated 1991).
Like-named read-outs stand apart in the source and are kept apart here.

Experiments:
[1] = test system: normal spleen cells / splenic T-lymphocytes (Con-A stimulated); assay: Con-A blastogenic response of normal spleen cells (3H-thymidine incorporation); assay type: cell-based, mouse (C57Bl/6); details: for Blastogenic response of normal spleen cells to Con-A: triplicates ± SD; for inhibition at 1 µg/mL / inhibition at 10 µg/mL / inhibition at 25 µg/mL / inhibition at 100 µg/mL / inhibition at 300 µg/mL / inhibition at 750 µg/mL: Mus musculus, T-lymphocyte, 72 h, percent change from no compound, read-out: Blastogenic response of normal spleen cells to Con-A, % effect
Description: A simple method is used to screen compounds for their ability to modulate T-lymphocyte activity which comprises assessing the capacity of the compounds to alter the activation of murine spleen cells in response to T-lymphocyte mitogen activators, such as concanavalin-A (Con-A). The method used to measure the effects of the compounds of the present invention on the blastogenic response of spleen cells to the T-lymphocyte mitogen, (i.e., Con-A), is as follows.
Spleen cells were removed from normal C57Bl/6 mice and homogenized to obtain a single cell suspension. Erythrocytes were lysed by hypotonic shock. Upon determination of the viability and concentration of the remaining lymphoid cells, they were adjusted to a concentration of 4×10^6 /ml. These spleen cells (2×10^5 cells per […]) were seeded into wells of microtiter plates with the compounds of the present invention having the following dose concentrations:
Con-A was also added to these cultures at a final concentration of […]. These cells were cultured for 3 days at 37° C. in a humidified atmosphere of 5% CO2 in air. For the last 18 hours of culture, […] H-thymidine was added to each well. The cells were then precipitated by a multichannel harvester. The amount of ^3 H-thymidine incorporated by the cultured cells were measured in a liquid scintillation counter (Disintegrations per min., DPM). All assays were conducted in triplicate.
The incubation medium used for the blastogenesis assays was RPMI-1640 medium containing 10% fetal bovine serum, […] streptomycin, 100 U/ml penicillin, […] Hepes buffer solution, 5×10^-5 M 2-mercaptoethanol and 2 mM glutamine.
(§1) ^a Experimental compounds were first suspended in DMSO or ethanol,
^b The effect of experimental compounds on the blastogenic response o

[2] = test system: BUD-8 skin cell fibroblasts; assay: Proliferation of BUD-8 skin cell fibroblasts (3H-thymidine uptake); assay type: cell-based, human; details: for 3H-Thymidine uptake by BUD-8 skin cells: triplicates ± SD
Description: The human skin cell fibroblast line, BUD-8, was originally derived from the normal skin of a person and can now be obtained from the American Type Culture Collection.
The number of BUD-8 cells was expanded for use by culture in 25 cm^2 flasks at 37° C. in an atmosphere of 5% CO2 in air. At approximately 4-5 five day intervals, or when confluence was reached, the cells were passaged. This was accomplished by detaching the cells with a Teflon scraper, washing and reseeding the cells at a lower density into fresh tissue culture flasks.
The effect of these compound on the proliferative capacity of human BUD-8 skin fibroblasts was measured with the use of a ^3 H-thymidine incorporation assay using culture conditions which were similar to those used for the Con-A blastogenesis assay, described previously. Cultured skin cells were detached from the surface of tissue culture flasks mechanically with a Teflon scraper. The cells were washed, resuspended in incubation medium and the viabilities were determined. These cells were then plated in triplicate at a density of 2×10^3 cells/0.1 ml/microtiter well for the proliferation assays. […] Eighteen hours later, each of the BUD-8 cultures was examined morphologically for evidence of compound-induced toxicity such as cell rounding or granularity. The thymidine-pulsed cells were then precipitated and the amount of ^3 H-thymidine incorporation was counted in a liquid scintillation counter. […]
as §1
^b The effect of experimental compounds on the proliferation of BUD8

[3] = test system: leukotriene B4 (LTB4) secretion by BUD-8 skin cell fibroblasts; assay: Secretion of LTB4 by BUD-8 skin cell fibroblasts (radioimmunoassay); assay type: cell-based, human; details: for LTB4 in supernatant of BUD-8 skin cells: triplicate ± SD
Description: Levels of LTB4 in aliquots of BUD-8 skin cell cultures supernatants were quantified by radioimmunoassay. The cells were first plated in triplicate at a density of 1×10^4 cells/0.1 ml/microtiter well for the assay to quantitate LTB4. To these cells was added 0.1 ml incubation medium containing compound 80182, or nordihydroguaiaretic acid (NDGA) to inhibit leukotriene production. After 18 hours of culture, samples of the BUD-8 skin cell supernatants were collected from one set of microtiter plates and frozen until assayed for LTB4 content using a radioimmunoassay. Into a polypropylene tube were mixed 0.1 ml anti-LTB4, 0.1 ml^3 H-LTB4 and 0.1 ml LTB4 standard or LTB4 containing sample. The BUD-8 skin cell culture supernatants were used directly in the radioimmunoassay. The tubes were refrigerated overnight. A charcoal solution (0.5 ml of 0.5% charcoal Norit A) was added and each tube was centrifuged. The radio activity in the supernatant was then counted in a liquid scintillation counter. | ^a Experimental compounds were first suspended in DMSO or ethanol, | ^b The effect of experimental compounds on the amount of LTB4 in […]

[4] = Con-A 1 ug/ml, compound 1 ug/ml
[5] = Con-A 1 ug/ml, compound 10 ug/ml
[6] = Con-A 1 ug/ml, compound 25 ug/ml
[7] = Con-A 1 ug/ml, compound 100 ug/ml
[8] = Con-A 1 ug/ml, compound 300 ug/ml
[9] = Con-A 1 ug/ml, compound 750 ug/ml
[10] = Con-A 4 ug/ml, compound 1 ug/ml
[11] = Con-A 4 ug/ml, compound 10 ug/ml
[12] = Con-A 4 ug/ml, compound 25 ug/ml
[13] = Con-A 4 ug/ml, compound 100 ug/ml
[14] = Con-A 4 ug/ml, compound 300 ug/ml
[15] = Con-A 4 ug/ml, compound 750 ug/ml

CCCCCCCCCCCNCC(O)C1OC2OC(C)(C)OC2C1O [Ex. 2, 1,2-O-Isopropylidene-6-deoxy-6-aminoundecyl-α, D-glucofuranose]
Blastogenic response of normal spleen cells to Con-A [1, 4]: 13,581 ± 4,804 cpm
Blastogenic response of normal spleen cells to Con-A [1, 5]: 5,014 ± 89 cpm
Blastogenic response of normal spleen cells to Con-A [1, 6]: 3,312 ± 1,541 cpm
Blastogenic response of normal spleen cells to Con-A [1, 7]: 2,967 ± 964 cpm
Blastogenic response of normal spleen cells to Con-A [1, 8]: 2,934 ± 299 cpm
Blastogenic response of normal spleen cells to Con-A [1, 9]: 2,020 ± 651 cpm
Blastogenic response of normal spleen cells to Con-A [1, 10]: 18,607 ± 8,159 cpm
Blastogenic response of normal spleen cells to Con-A [1, 11]: 4,293 ± 3,517 cpm
Blastogenic response of normal spleen cells to Con-A [1, 12]: 1,635 ± 635 cpm
Blastogenic response of normal spleen cells to Con-A [1, 13]: 2,618 ± 444 cpm
Blastogenic response of normal spleen cells to Con-A [1, 14]: 2,787 ± 413 cpm
Blastogenic response of normal spleen cells to Con-A [1, 15]: 1,575 ± 480 cpm
inhibition at 1 µg/mL [1, 4]: 81%
inhibition at 10 µg/mL [1, 5]: 93%
inhibition at 25 µg/mL [1, 6]: 95%
inhibition at 100 µg/mL [1, 7]: 96%
inhibition at 300 µg/mL [1, 8]: 96%
inhibition at 750 µg/mL [1, 9]: 97%
inhibition at 1 µg/mL [1, 10]: 81%
inhibition at 10 µg/mL [1, 11]: 96%
inhibition at 25 µg/mL [1, 12]: 98%
inhibition at 100 µg/mL [1, 13]: 97%
inhibition at 300 µg/mL [1, 14]: 97%
inhibition at 750 µg/mL [1, 15]: 98%
anti-proliferative effect on skin cells [2]: anti-proliferative effect that was statistically significant
inhibition at 1 µg/mL ([2]; Homo sapiens, Fibroblast, compound 1 ug/ml, percent change from no compound, read-out: 3H-Thymidine uptake by BUD-8 skin cells, % effect): 1%
inhibition at 10 µg/mL ([2]; Homo sapiens, Fibroblast, compound 10 ug/ml, percent change from no compound, read-out: 3H-Thymidine uptake by BUD-8 skin cells, % effect): 46%
inhibition at 25 µg/mL ([2]; Homo sapiens, Fibroblast, compound 25 ug/ml, percent change from no compound, read-out: 3H-Thymidine uptake by BUD-8 skin cells, % effect): 77%
inhibition at 100 µg/mL ([2]; Homo sapiens, Fibroblast, compound 100 ug/ml, percent change from no compound, read-out: 3H-Thymidine uptake by BUD-8 skin cells, % effect): 89%
inhibition at 300 µg/mL ([2]; Homo sapiens, Fibroblast, compound 300 ug/ml, percent change from no compound, read-out: 3H-Thymidine uptake by BUD-8 skin cells, % effect): 90%
inhibition at 750 µg/mL ([2]; Homo sapiens, Fibroblast, compound 750 ug/ml, percent change from no compound, read-out: 3H-Thymidine uptake by BUD-8 skin cells, % effect): 85%
3H-Thymidine uptake by BUD-8 skin cells ([2]; compound 1 ug/ml): 6,069 ± 636 cpm
3H-Thymidine uptake by BUD-8 skin cells ([2]; compound 10 ug/ml): 3,363 ± 227 cpm
3H-Thymidine uptake by BUD-8 skin cells ([2]; compound 25 ug/ml): 1,430 ± 1,176 cpm
3H-Thymidine uptake by BUD-8 skin cells ([2]; compound 100 ug/ml): 649 ± 114 cpm
3H-Thymidine uptake by BUD-8 skin cells ([2]; compound 300 ug/ml): 595 ± 110 cpm
3H-Thymidine uptake by BUD-8 skin cells ([2]; compound 750 ug/ml): 911 ± 863 cpm
effect on LTB4 secretion / activity [3]: produced an effect upon the secretion of leukotriene B4
inhibition at 1 µg/mL ([3]; Homo sapiens, Fibroblast, 18 h, compound 1 ug/ml, percent change from no compound, read-out: LTB4 secretion, % Effect): -15%
inhibition at 10 µg/mL ([3]; Homo sapiens, Fibroblast, 18 h, compound 10 ug/ml, percent change from no compound, read-out: LTB4 secretion, % Effect): 37%
inhibition at 25 µg/mL ([3]; Homo sapiens, Fibroblast, 18 h, compound 25 ug/ml, percent change from no compound, read-out: LTB4 secretion, % Effect): 58%
inhibition at 100 µg/mL ([3]; Homo sapiens, Fibroblast, 18 h, compound 100 ug/ml, percent change from no compound, read-out: LTB4 secretion, % Effect): 22%
inhibition at 300 µg/mL ([3]; Homo sapiens, Fibroblast, 18 h, compound 300 ug/ml, percent change from no compound, read-out: LTB4 secretion, % Effect): 60%
inhibition at 750 µg/mL ([3]; Homo sapiens, Fibroblast, 18 h, compound 750 ug/ml, percent change from no compound, read-out: LTB4 secretion, % Effect): 42%
calculated LTB4 secreted/10^5 BUD-8 cells ([3]; compound 1 ug/ml): 862 pg LTB4 per 10^5 cells
LTB4 in supernatant of BUD-8 skin cells ([3]; compound 1 ug/ml): 44.4 ± 3.8 pg LTB4 /100 ul supernatant
calculated LTB4 secreted/10^5 BUD-8 cells ([3]; compound 10 ug/ml): 485 pg LTB4 per 10^5 cells
LTB4 in supernatant of BUD-8 skin cells ([3]; compound 10 ug/ml): 24.6 ± 5.3 pg LTB4 /100 ul supernatant
calculated LTB4 secreted/10^5 BUD-8 cells ([3]; compound 25 ug/ml): 303 pg LTB4 per 10^5 cells
LTB4 in supernatant of BUD-8 skin cells ([3]; compound 25 ug/ml): 16.4 ± 2.0 pg LTB4 /100 ul supernatant
calculated LTB4 secreted/10^5 BUD-8 cells ([3]; compound 100 ug/ml): 575 pg LTB4 per 10^5 cells
LTB4 in supernatant of BUD-8 skin cells ([3]; compound 100 ug/ml): 30.1 ± 3.9 pg LTB4 /100 ul supernatant
calculated LTB4 secreted/10^5 BUD-8 cells ([3]; compound 300 ug/ml): 281 pg LTB4 per 10^5 cells
LTB4 in supernatant of BUD-8 skin cells ([3]; compound 300 ug/ml): 15.3 ± 1.1 pg LTB4 /100 ul supernatant
calculated LTB4 secreted/10^5 BUD-8 cells ([3]; compound 750 ug/ml): 422 pg LTB4 per 10^5 cells
LTB4 in supernatant of BUD-8 skin cells ([3]; compound 750 ug/ml): 22.4 ± 4.2 pg LTB4 /100 ul supernatant
